According to patent US20240150293A1, “SPIROCYCLOHEXANE DERIVATIVES, PHARMACEUTICAL COMPOSITIONS CONTAINING THEM AND THEIR USES AS ANTI-APOPTOTIC INHIBITORS” (LES LABORATOIRES SERVIER, priority 2021, published 2024):
Read-outs that look alike come from different tables or passages of the source.

Columns and labels:
Mcl-1 protein = Mcl-1 protein (UniProtKB Q07820) (Homo sapiens (Human), UniProt Q07820); assay: Inhibition of Mcl-1 by the fluorescence polarisation assay (Example A, Method A); assay type: binding; conditions: fluorescence polarization assay
Procedure, shortened: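 Protein (5 nM) and fluorescein-tagged peptide tracer (1 nM) incubated with 11-point compound series for 2 h at room temperature in HEPES/NaCl/Tween 20 buffer, pH 7.4, 5% DMSO. Displacement read as decrease in polarisation; IC50 fitted by 4-parameter logistic, converted to Ki (cKi or eKi).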

[1] = test system: H929 multiple myeloma tumor line; assay: In vitro cytotoxicity, MTT assay (Example B, Method A); assay type: cell-based; conditions: H929 cells, 48 hours exposure, read-out: C50
Method: The cytotoxicity studies were carried out on the H929 multiple myeloma tumor line.
The cells are distributed onto microplates and exposed to the test compounds for 48 hours. The cell viability is then quantified by a colorimetric assay, the Microculture Tetrazolium Assay (Carmichael et al, Cancer Res. 1987, 47, 939-942).
The results are expressed in C50 which means concentration corresponding to […] of effect/inhibition.

Chain of Mcl-1 protein (Q07820 whole entry): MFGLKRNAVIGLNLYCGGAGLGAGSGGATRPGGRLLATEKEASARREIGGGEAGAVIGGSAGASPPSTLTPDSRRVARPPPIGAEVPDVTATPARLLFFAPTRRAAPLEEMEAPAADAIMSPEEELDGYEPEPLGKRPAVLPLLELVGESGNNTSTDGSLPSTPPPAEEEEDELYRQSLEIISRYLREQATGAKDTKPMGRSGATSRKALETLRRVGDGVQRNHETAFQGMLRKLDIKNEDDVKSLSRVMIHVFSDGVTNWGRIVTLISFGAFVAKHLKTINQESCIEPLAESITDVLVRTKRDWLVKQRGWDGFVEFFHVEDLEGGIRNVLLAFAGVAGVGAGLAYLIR

Compound	Ki (Mcl-1 protein) [µM]	IC50 ([1]; Homo sapiens, NCI-H929, 48 h) [µM]	IC50 [1] [µM]
O=C(O)[C@]1(Nc2cccc(Cl)c2)CC[C@@]2(CC1)c1ccccc1CC2CCCOc1ccnc2c1CCCC2 (stereo partly drawn) [Example 451, (1r,4r)-4-(3-chloroanilino)-2′-{3-[(5,6,7,8-tetrahydroquinolin-4-yl)oxy]propyl}-2′,3′-dihydrospiro[cyclohexane-1,1′-indene]-4-carboxylic acid]	0.0497	3.49	–
O=C(O)[C@]1(Nc2cccc(Cl)c2)CC[C@@]2(CC1)c1ccccc1CC2CCCOc1ccncc1C(F)(F)F (stereo partly drawn) [Example 463, (1r,4r)-4-(3-chloroanilino)-2′-(3-{[3-(trifluoromethyl)pyridin-4-yl]oxy}propyl)-2′,3′-dihydrospiro[cyclohexane-1,1′-indene]-4-carboxylic acid]	0.0592	8.23	–
O=C(O)[C@]1(Nc2cccc(Cl)c2)CC[C@@]2(CC1)c1ccccc1CC2CCCOc1ccncc1C1CC1 (stereo partly drawn) [Example 464, (1r,4r)-4-(3-chloroanilino)-2′-{3-[(3-cyclopropylpyridin-4-yl)oxy]propyl}-2′,3′-dihydrospiro[cyclohexane-1,1′-indene]-4-carboxylic acid]	0.0491	14.8	–
C[C@@H]1CCc2ncnc(OCCCC3Cc4ccccc4[C@]34CC[C@@](Nc3cccc(Cl)c3)(C(=O)O)CC4)c21 (stereo partly drawn) [Example 472, (1r,4R)-4-(3-chloroanilino)-2′-(3-{[(5R)-5-methyl-6,7-dihydro-5H-cyclopenta[d]pyrimidin-4-yl]oxy}propyl)-2′,3′-dihydrospiro[cyclohexane-1,1′-indene]-4-carboxylic acid]	0.033	5.04	–
Cc1cc2c(OCCC[C@@H]3Cc4ccccc4[C@]34CC[C@@](Nc3cccc(Cl)c3)(C(=O)O)CC4)cccc2[nH]1 [Example 481, (1r,2′R,4R)-4-(3-chloroanilino)-2′-{3-[(2-methyl-1H-indol-4-yl)oxy]propyl}-2′,3′-dihydrospiro[cyclohexane-1,1′-indene]-4-carboxylic acid]	0.0721	5.08	–
Cc1cc2c(OCCC[C@H]3Cc4ccccc4[C@]34CC[C@@](Nc3cccc(Cl)c3)(C(=O)O)CC4)cccc2[nH]1 [Example 482, (1r,2′S,4S)-4-(3-chloroanilino)-2′-{3-[(2-methyl-1H-indol-4-yl)oxy]propyl}-2′,3′-dihydrospiro[cyclohexane-1,1′-indene]-4-carboxylic acid]	0.317	12.4	–
Cc1c[nH]c2cccc(OCCC[C@@H]3Cc4ccccc4[C@]34CC[C@@](Nc3cccc(Cl)c3)(C(=O)O)CC4)c12 [Example 483, (1r,2′R,4R)-4-(3-chloroanilino)-2′-{3-[(3-methyl-1H-indol-4-yl)oxy]propyl}-2′,3′-dihydrospiro[cyclohexane-1,1′-indene]-4-carboxylic acid]	0.174	4.17	–
Cc1c[nH]c2cccc(OCCC[C@H]3Cc4ccccc4[C@]34CC[C@@](Nc3cccc(Cl)c3)(C(=O)O)CC4)c12 [Example 484, (1r,2′S,4S)-4-(3-chloroanilino)-2′-{3-[(3-methyl-1H-indol-4-yl)oxy]propyl}-2′,3′-dihydrospiro[cyclohexane-1,1′-indene]-4-carboxylic acid]	0.759	9.64	–

Now from value to compound, other results behind:

Ki (Mcl-1 protein) [µM]	Compound	IC50 ([1]; Homo sapiens, NCI-H929, 48 h) [µM]	IC50 [1] [µM]
0.08	Cc1cnccc1OCCC[C@H]1Cc2ccccc2[C@]12CC[C@@](Nc1cccc(Cl)c1)(C(=O)O)CC2 [Example 449, (1r,2′S,4S)-4-(3-chloroanilino)-2′-{3-[(3-methylpyridin-4-yl)oxy]propyl}-2′,3′-dihydrospiro[cyclohexane-1,1′-indene]-4-carboxylic acid]	9.27	–
0.03	O=C(O)[C@]1(Nc2cccc(Cl)c2)CC[C@@]2(CC1)c1ccccc1CC2CCCOc1ccnc2c1CCC2 (stereo partly drawn) [Example 452, (1r,4r)-4-(3-chloroanilino)-2′-{3-[(6,7-dihydro-5H-cyclopenta[b]pyridin-4-yl)oxy]propyl}-2′,3′-dihydrospiro[cyclohexane-1,1′-indene]-4-carboxylic acid]	2.44	–
0.293	CC(C)C(COc1ccnc2ccsc12)CC1Cc2ccccc2C12CCC(Nc1cccc(Cl)c1)(C(=O)O)CC2 (stereo not drawn) [Example 525, (1r,4r)-4-(3-chloroanilino)-2′-(3-methyl-2-{[(thieno[3,2-b]pyridin-7-yl)oxy]methyl}butyl)-2′,3′-dihydrospiro[cyclohexane-1,1′-indene]-4-carboxylic acid]	–	2.49
2.1	CC[C@H](COc1ccnc2ccsc12)C[C@@H]1Cc2ccccc2[C@]12CC[C@@](Nc1cccc(Cl)c1)(C(=O)O)CC2 [Example 536, (1r,2′R,4R)-4-(3-chloroanilino)-2′-[(2S)-2-{[(thieno[3,2-b]pyridin-7-yl)oxy]methyl}butyl]-2′,3′-dihydrospiro[cyclohexane-1,1′-indene]-4-carboxylic acid]	17.2	–
0.575	CC[C@H](COc1ccnc2ccsc12)C[C@H]1Cc2ccccc2[C@]12CC[C@@](Nc1cccc(Cl)c1)(C(=O)O)CC2 [Example 537, (1r,2′S,4S)-4-(3-chloroanilino)-2′-[(2S)-2-{[(thieno[3,2-b]pyridin-7-yl)oxy]methyl}butyl]-2′,3′-dihydrospiro[cyclohexane-1,1′-indene]-4-carboxylic acid]	16	–
3.49	O=C(O)[C@]1(Nc2cccc(Cl)c2)CC[C@@]2(CC1)c1ccccc1C[C@@H]2C[C@@H](COc1ccnc2ccsc12)c1ccccc1 [Example 545, (1r,2′S,4S)-4-(3-chloroanilino)-2′-{(2R)-2-phenyl-3-[(thieno[3,2-b]pyridin-7-yl)oxy]propyl}-2′,3′-dihydrospiro[cyclohexane-1,1′-indene]-4-carboxylic acid]	8.92	–
1.64	O=C(O)[C@]1(Nc2cccc(Cl)c2)CC[C@@]2(CC1)c1ccccc1C[C@H]2C[C@H](COc1ccnc2ccsc12)c1ccccc1 [Example 546, (1r,2′R,4R)-4-(3-chloroanilino)-2′-{(2S)-2-phenyl-3-[(thieno[3,2-b]pyridin-7-yl)oxy]propyl}-2′,3′-dihydrospiro[cyclohexane-1,1′-indene]-4-carboxylic acid]	30	–
0.995	O=C(O)[C@]1(Nc2cccc(Cl)c2)CC[C@@]2(CC1)c1ccccc1C[C@@H]2C[C@@H](COc1cccnc1)c1ccccc1 [Example 548, (1r,2′S,4S)-4-(3-chloroanilino)-2′-{(2R)-2-phenyl-3-[(pyridin-3-yl)oxy]propyl}-2′,3′-dihydrospiro[cyclohexane-1,1′-indene]-4-carboxylic acid]	30	–
9.48	O=C(O)[C@]1(Nc2cccc(Cl)c2)CC[C@@]2(CC1)c1ccccc1C[C@H]2C[C@@H](COc1cccnc1)c1ccccc1 [Example 549, (1r,2′R,4R)-4-(3-chloroanilino)-2′-{(2R)-2-phenyl-3-[(pyridin-3-yl)oxy]propyl}-2′,3′-dihydrospiro[cyclohexane-1,1′-indene]-4-carboxylic acid]	17.9	–
5.28	O=C(O)[C@]1(Nc2cccc(Cl)c2)CC[C@@]2(CC1)c1ccccc1C[C@H]2C[C@H](COc1cccnc1)c1ccccc1 [Example 550, (1r,2′R,4R)-4-(3-chloroanilino)-2′-{(2S)-2-phenyl-3-[(pyridin-3-yl)oxy]propyl}-2′,3′-dihydrospiro[cyclohexane-1,1′-indene]-4-carboxylic acid]	30	–
